Experimental data published in patent publication US6969720B2, “Biaryl substituted purine derivatives as potent antiproliferative agents” (AMR Technology, Inc., priority 1999, dated 2005).
Several values for one entry are separate records, joined by “and”; a condition that tells them apart may be missing. Equal entries are not always repeated.

Experiments:
HeLa S-3 cells = test: Inhibition of cell growth (SRB), HeLa cells; format: cell-based, human; conditions: 2 days of treatment, sulforhodamine B, replicate experiments listed singly
Description: D. Measuring the Inhibition of Cell Growth
Growth inhibition (GI50) values were measured with HeLa S-3 cells selected for growth on plastic. […] One day later, a control plate was fixed by addition of TCA to 5%. After five rinses with tap water the plate was air dried and stored at 4° C. Test compounds were added to the remaining plates at 10-fold dilutions between 0.01 and 100 μM. Two days later all plates were fixed as described above. Cells were then stained by the addition of 100 μl per well of 0.4% sulforhodamine B (SRB) in 1% acetic acid for 30 min at 4° C. Wells were then quickly rinsed 5× with acetic acid (1%) and allowed to air dry. The SRB was then solubilized by the addition of 100 μl per well of unbuffered 10 mM Tris base. Dye was quantified by measuring absorbance at 490 nm on a Molecular Devices kinetic microplate reader. Growth at each inhibitor concentration relative to the untreated control was calculated according to the following equation: percent growth=100×(T−To)/(C−To), where T was the average optical density (OD) of the test wells after 2 days of treatment, To was the average OD of the wells in the control plate on day 0 and C was the average OD of untreated wells. Plots of percent growth versus inhibitor concentration were used to determine the GI50.

implanted tumors = test: Efficacy study, implanted tumors; format: in vivo, athymic mice; conditions: IP
Description: The efficacy study consists of three compound-treated groups (six mice/group), a positive control-treated group (six mice), and a vehicle-treated control group of 12 mice. Test compounds were administered IP under the treatment schedules listed above (qd×14 or q4d×3), whereas the positive control agent (Taxol) was administered intravenously (IV) at a dosage level of 15 mg/kg/dose for five consecutive days (qd×5). All agents were administered on the basis of individual animal body weight. Treatment began when the implanted tumors were approximately 100 mg in size (range of 65 to 200 mg). The mice were observed daily for survival. Each tumor was measured by caliper in two dimensions and converted to tumor mass using the formula for a prolate ellipsoid (a×b^2/2) and assuming unit density. Tumor measurements and animal body weights were recorded twice weekly. Antitumor activity was assessed by the delay in tumor growth of the treated groups in comparison to the vehicle-treated control group, partial and complete regressions, and tumor-free survivors.

[1] = tested on: Tumor Cells in Hollow Fibers; test: NCI Hollow Fiber Assay; format: in vivo

## CC[C@H](CO)Nc1nc(NCc2ccc(-c3cccc(NC(C)=O)c3)cc2)c2ncn(C(C)C)c2n1 [Compound 5]
HeLa S-3 cells
  GI50: > 10000 nM

## CC(C)n1cnc2c(NCc3ccc(-c4ccsc4)cc3)nc(N[C@H]3CC[C@H](N)CC3)nc21 [Compound 12]
Implanted tumors; 0.27 mg/kg, q4d × 3
  T-C: 1.2 days
Implanted tumors; 0.4 mg/kg, q4d × 3
  T-C: 0.2 days
Implanted tumors; 0.6 mg/kg, q4d × 3
  T-C: 0.3 days

## CC(C)n1cnc2c(NCc3ccc(-c4ccc(F)c(Cl)c4)cc3)nc(N[C@H]3CC[C@H](N)CC3)nc21 [Compound 14]
HeLa S-3 cells
  GI50: 400 nM

## CC[C@H](CO)Nc1nc(NCc2ccc(-c3ccccn3)cc2)c2ncn(C(C)C)c2n1 [Compound 17]
HeLa S-3 cells
  GI50: 600 nM and 300 nM

## CC[C@H](CO)Nc1nc(NCc2ccc(-c3cccnc3)cc2)c2ncn(C(C)C)c2n1 [Compound 25]
HeLa S-3 cells
  GI50: 2000 nM and 400 nM and > 1000 nM

## C=Cc1ccc(-c2ccc(CNc3nc(N[C@H](CC)CO)nc4c3ncn4C(C)C)cc2)cc1 [Compound 33]
HeLa S-3 cells
  GI50: 1000 nM and 2000 nM and 900 nM

## CC[C@H](CO)Nc1nc(NCc2ccc(-c3ccc(C(O)CO)cc3)cc2)c2ncn(C(C)C)c2n1 (some centres unmarked) [Compound 34]
HeLa S-3 cells
  GI50: 6000 nM

## CC[C@H](CO)Nc1nc(NCc2ccc(-c3ccc(OC)cc3)cc2)c2ncn(C(C)C)c2n1 [Compound 43]
HeLa S-3 cells
  GI50: 8000 nM

## CC(=O)N[C@H]1CCCC[C@@H]1Nc1nc(NCc2ccc(-c3ccccc3)cc2)c2ncn(C(C)C)c2n1 [Compound 60]
HeLa S-3 cells
  GI50: 6000 nM

## CC(C)n1cnc2c(NCc3ccc(-c4ccccn4)cc3)nc(N[C@H]3CC[C@H](N)CC3)nc21 [Compound 78]
Implanted tumors; 0.33 mg/kg, qd × 14
  T-C: 1.8 days
  Tumor free/total: 0/6
Implanted tumors; 0.5 mg/kg, qd × 14
  T-C: 0.8 days
  Tumor free/total: 0/6
Implanted tumors; 1.0 mg/kg, q4d × 3
  T-C: 1.1 days
  Tumor free/total: 0/6

## CC(C)n1cnc2c(NCc3ccc(-c4ccccc4)cc3)nc(N[C@H]3CCCC[C@H]3NC(=O)Nc3ccccc3)nc21 [Compound 80]
HeLa S-3 cells
  GI50: > 100000 nM

## CC(C)n1cnc2c(NCc3ccc(-c4ccccc4)nc3)nc(N[C@H]3CC[C@H](N)CC3)nc21 [Compound 86]
HeLa S-3 cells
  GI50: 30 nM

## CC(=O)N[C@H]1CC[C@H](Nc2nc(NCc3ccc(-c4ccccc4)nc3)c3ncn(C(C)C)c3n2)CC1 [Compound 87]
Implanted tumors; 10 mg/kg, q4d × 3
  T-C: 2.9 days
  Tumor free/total: 0/6
Implanted tumors; 15 mg/kg, q4d × 3
  T-C: 2.5 days
  Tumor free/total: 0/6

## CC(C)n1cnc2c(NCc3ccc(-c4ccccn4)nc3)nc(N[C@H]3CC[C@H](N)CC3)nc21 [Compound 93]
HeLa S-3 cells
  GI50: 80 nM

## CC(=O)N[C@H]1CC[C@H](Nc2nc(NCc3ccc(-c4ccccn4)nc3)c3ncn(C(C)C)c3n2)CC1 [Compound 94]
HeLa S-3 cells
  GI50: 70 nM
[1]
  Cell Types Killed: COLO205, OVCAR-3, H522

## CC(=O)N[C@H]1CC[C@H](Nc2nc(NCc3ccc(-c4cccc(F)c4)cc3)c3ncn(C(C)C)c3n2)CC1 [Compound 96]
HeLa S-3 cells
  GI50: 40 nM and 10 nM

## CC(C)n1cnc2c(NCc3ccc(-c4cccnc4)cc3)nc(N[C@H]3CC[C@H](N)CC3)nc21 [Compound 103]
HeLa S-3 cells
  GI50: 30 nM and 8 nM and 20 nM and 10 nM
[1]
  Cell Types Killed: OVCAR 3, OVCAR 5,

## CC(=O)N[C@@H](C)CNc1nc(NCc2ccc(-c3ccccc3)cc2)c2ncn(C(C)C)c2n1 [Compound 108]
HeLa S-3 cells
  GI50: 5000 nM

## CC(=O)N[C@H]1CC[C@H](Nc2nc(NCc3ccc(-c4cccc(Cl)c4)cc3)c3ncn(C(C)C)c3n2)CC1 [Compound 110]
HeLa S-3 cells
  GI50: 30 nM and 10 nM

## CC(C)n1cnc2c(NCc3ccc(-c4cccs4)cc3)nc(N[C@H]3CC[C@H](N)CC3)nc21 [Compound 111]
other
  melting point: 109 to 110 °C

## CC(C)n1cnc2c(NCc3cccnc3)nc(N[C@@H]3CCCC[C@@H]3N)nc21 [Compound 126, reference compound]
HeLa S-3 cells
  GI50: 2000 nM and 4000 nM and 6000 nM

## Cn1cnc2c(NCc3ccc(-c4ccccc4)cc3)nc(N[C@H]3CC[C@H](N)CC3)nc21 [Compound 139]
other
  melting point: 182 to 184 °C

## CC(=O)N[C@H]1CC[C@H](Nc2nc(NCc3ccc(-c4cc(C)cc(C)c4)cc3)c3ncn(C(C)C)c3n2)CC1 [Compound 150]
HeLa S-3 cells
  GI50: 200 nM

## CC(=O)N[C@H]1CC[C@H](Nc2nc(NCc3ccc(-c4ccc(C)s4)cc3)c3ncn(C(C)C)c3n2)CC1 [Compound 158]
HeLa S-3 cells
  GI50: 400 nM
other
  melting point: 225 to 230 °C

## Cc1csc(-c2ccc(CNc3nc(N[C@H]4CC[C@H](N)CC4)nc4c3ncn4C(C)C)cc2)c1 [Compound 160]
HeLa S-3 cells
  GI50: 300 nM

## CC(=O)N[C@H]1CC[C@H](Nc2nc(NCc3ccc(-c4cc(C)cs4)cc3)c3ncn(C(C)C)c3n2)CC1 [Compound 161]
HeLa S-3 cells
  GI50: 400 nM
other
  melting point: 222 to 223 °C

## CCCN[C@H]1CC[C@H](Nc2nc(NCc3ccc(-c4cc(C)cs4)cc3)c3ncn(C(C)C)c3n2)CC1 [Compound 162]
HeLa S-3 cells
  GI50: 300 nM

## CC(C)n1cnc2c(NCc3ccc(-c4ccoc4)cc3)nc(N[C@H]3CC[C@H](N)CC3)nc21 [Compound 164]
HeLa S-3 cells
  GI50: 100 nM

## CC(=O)N[C@H]1CC[C@H](Nc2nc(NCc3ccc(-c4ccoc4)cc3)c3ncn(C(C)C)c3n2)CC1 [Compound 165]
other
  melting point: 241 to 243 °C

## CCCN(CCC)CCNc1nc(NCc2ccc(-c3ccccc3)cc2)c2ncn(C(C)C)c2n1 [Compound 210]
HeLa S-3 cells
  GI50: 4000 nM

## CC(=O)NCCCNc1nc(NCc2ccc(-c3ccccc3)cc2)c2ncn(C(C)C)c2n1 [Compound 212]
HeLa S-3 cells
  GI50: 3000 nM

## CCCNCCCCNc1nc(NCc2ccc(-c3ccccc3)cc2)c2ncn(C(C)C)c2n1 [Compound 215]
HeLa S-3 cells
  GI50: 3000 nM

## CC(=O)N[C@H]1CC[C@H](Nc2nc(NCc3ccc(-c4cccc(CN)c4)cc3)c3ncn(C(C)C)c3n2)CC1 [Compound 223]
HeLa S-3 cells
  GI50: 40 nM and 100 nM
